Here are results for 5 compounds from patent US9603364B2 (Dow AgroSciences LLC, priority 2013, dated 2017).

Common to all, as to test: General post-emergent herbicidal activity, foliar application
What all share (format): in vivo

For assay [1], the system named is Viola tricolor L. (pansy). The following applies: for pest or weed control at 35 g/ha / pest or weed control at 70 g/ha / pest or weed control at 140 g/ha / pest or weed control at 280 g/ha: Viola tricolor, 336 h, foliar post-emergent, scored after 14 days, read-out: % Visual Growth Reduction VIOTR; for pest or weed control at 35 g/ha: 35 g ai/ha; for pest or weed control at 70 g/ha: 70 g ai/ha; for pest or weed control at 140 g/ha: 140 g ai/ha; for pest or weed control at 280 g/ha: 280 g ai/ha; for GR80 Value VIOTR: calculated by probit analysis, dose for 80% visual injury, may be extrapolated. In a few lines: (§1)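 Compounds in acetone/DMSO (97:3) were diluted into aqueous spray containing isopropyl alcohol, Atplus 411F crop oil and Triton X-155, then applied post-emergence to foliage at a top rate plus 1/2× to 1/16× serial dilutions. Injury was scored visually (0–100%) after 14 days in a sub-irrigated greenhouse versus untreated plants. GR20/GR50/GR80 were derived by probit analysis, with some GR80 values extrapolated from curve slope.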

The subject of assay [2] is Amaranthus retroflexus L. (pigweed, redroot). The following applies: for pest or weed control at 35 g/ha / pest or weed control at 70 g/ha / pest or weed control at 140 g/ha / pest or weed control at 280 g/ha: Amaranthus retroflexus, 336 h, foliar post-emergent, scored after 14 days, read-out: % Visual Growth Reduction AMARE; for pest or weed control at 35 g/ha: 35 g ai/ha; for pest or weed control at 70 g/ha: 70 g ai/ha; for pest or weed control at 140 g/ha: 140 g ai/ha; for pest or weed control at 280 g/ha: 280 g ai/ha; for GR80 Value AMARE: calculated by probit analysis, dose for 80% visual injury, may be extrapolated. The procedure, abridged: as §1

Assay [3] relates to Helianthus annuus L. (sunflower, common). The following applies: for pest or weed control at 35 g/ha / pest or weed control at 70 g/ha / pest or weed control at 140 g/ha / pest or weed control at 280 g/ha: Helianthus annuus, 336 h, foliar post-emergent, scored after 14 days, read-out: % Visual Growth Reduction HELAN; for pest or weed control at 35 g/ha: 35 g ai/ha; for pest or weed control at 70 g/ha: 70 g ai/ha; for pest or weed control at 140 g/ha: 140 g ai/ha; for pest or weed control at 280 g/ha: 280 g ai/ha; for GR80 Value HELAN: calculated by probit analysis, dose for 80% visual injury, may be extrapolated. The procedure, abridged: as §1

The subject of assay [4] is Euphorbia heterophylla L. (poinsettia, wild). The following applies: for pest or weed control at 35 g/ha / pest or weed control at 70 g/ha / pest or weed control at 140 g/ha / pest or weed control at 280 g/ha: Euphorbia heterophylla, 336 h, foliar post-emergent, scored after 14 days, read-out: % Visual Growth Reduction EPHHL; for pest or weed control at 35 g/ha: 35 g ai/ha; for pest or weed control at 70 g/ha: 70 g ai/ha; for pest or weed control at 140 g/ha: 140 g ai/ha; for pest or weed control at 280 g/ha: 280 g ai/ha; for GR80 Value EPHHL: calculated by probit analysis, dose for 80% visual injury, may be extrapolated. In a few lines:
as §1

In assay [5] the test system is Chenopodium album L. (lambsquarters, common). The following applies: for pest or weed control at 35 g/ha / pest or weed control at 70 g/ha / pest or weed control at 140 g/ha / pest or weed control at 280 g/ha: Chenopodium album, 336 h, foliar post-emergent, scored after 14 days, read-out: % Visual Growth Reduction CHEAL; for pest or weed control at 35 g/ha: 35 g ai/ha; for pest or weed control at 70 g/ha: 70 g ai/ha; for pest or weed control at 140 g/ha: 140 g ai/ha; for pest or weed control at 280 g/ha: 280 g ai/ha; for GR80 Value CHEAL: calculated by probit analysis, dose for 80% visual injury, may be extrapolated. In a few lines:
as §1

For assay [6], the system named is Echinochloa crus-galli (L.) Beauv. (barnyardgrass). The following applies: for pest or weed control at 35 g/ha / pest or weed control at 70 g/ha / pest or weed control at 140 g/ha / pest or weed control at 280 g/ha: Echinochloa crus-galli, 336 h, foliar post-emergent, scored after 14 days, read-out: % Visual Growth Reduction ECHCG; for pest or weed control at 35 g/ha: 35 g ai/ha; for pest or weed control at 70 g/ha: 70 g ai/ha; for pest or weed control at 140 g/ha: 140 g ai/ha; for pest or weed control at 280 g/ha: 280 g ai/ha; for GR80 Value ECHCG: calculated by probit analysis, dose for 80% visual injury, may be extrapolated. In a few lines:
as §1

The next assay has as its system Oryza sativa L. (rice). To be noted: Oryza sativa, 336 h, scored after 14 days, read-out: % Visual Growth Reduction ORYSA; for plant injury at 35 g/ha: 35 g ai/ha; for plant injury at 70 g/ha: 70 g ai/ha; for plant injury at 140 g/ha: 140 g ai/ha; for plant injury at 280 g/ha: 280 g ai/ha. The procedure, abridged:
(§2)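 Injury rated visually 14 days after treatment on a 0 (none) to 100% (complete kill) scale against untreated plants; greenhouse-grown, sub-irrigated to avoid wash-off. Foliar spray in aqueous acetone/DMSO with isopropanol, crop oil concentrate and Triton X-155, at a highest rate and 2-fold serial dilutions down to 1/16×.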

A further assay deals with Zea mays L. (corn). The following applies: 336 h, scored after 14 days, read-out: % Visual Growth Reduction ZEAMX; for plant injury at 35 g/ha: 35 g ai/ha; for plant injury at 70 g/ha: 70 g ai/ha; for plant injury at 140 g/ha: 140 g ai/ha; for plant injury at 280 g/ha: 280 g ai/ha. In a few lines: as §2

With `COC(=O)c1nc(C(C)F)cc(N)c1Cl` (centres unmarked) [Compound F19, Methyl 4-amino-3-chloro-6-(1-fluoroethyl)picolinate], in assay [1], the pest or weed control at 35 g/ha stood at 100%, the pest or weed control at 70 g/ha was 100%, the pest or weed control at 140 g/ha worked out at 100% and the pest or weed control at 280 g/ha is 100%. In assay [1], the “GR80 Value VIOTR” value was 34.3 g ai/ha. For the same compound, in assay [2], the pest or weed control at 35 g/ha came to 100%, the pest or weed control at 70 g/ha amounted to 100%, the pest or weed control at 140 g/ha came to 100% and the pest or weed control at 280 g/ha came out at 100%. The “GR80 Value AMARE” value in assay [2] was 19.1 g ai/ha. In assay [3], the pest or weed control at 35 g/ha worked out at 10%, the pest or weed control at 70 g/ha was 20%, the pest or weed control at 140 g/ha was determined as 50% and the pest or weed control at 280 g/ha was determined as 80%. In assay [3], the “GR80 Value HELAN” value was 341 g ai/ha. Moreover, in assay [4], the pest or weed control at 35 g/ha was 10%, the pest or weed control at 70 g/ha was 90%, the pest or weed control at 140 g/ha was found to be 100% and the pest or weed control at 280 g/ha turned out to be 100%. The “GR80 Value EPHHL” value in assay [4] was 72.3 g ai/ha. Also, in assay [5], the pest or weed control at 35 g/ha came to 100%, the pest or weed control at 70 g/ha came to 100%, the pest or weed control at 140 g/ha is 100% and the pest or weed control at 280 g/ha turned out to be 100%. Also, in assay [5], the “GR80 Value CHEAL” value was under 17.5 g ai/ha. In assay [6], the pest or weed control at 35 g/ha is 0%, the pest or weed control at 70 g/ha turned out to be 0%, the pest or weed control at 140 g/ha is 20% and the pest or weed control at 280 g/ha amounted to 25%. The “GR80 Value ECHCG” value in assay [6] is over 280 g ai/ha. In addition, in the assay on Oryza sativa L. (rice), the plant injury at 35 g/ha was 0%, the plant injury at 70 g/ha is 0%, the plant injury at 140 g/ha is 0% and the plant injury at 280 g/ha came out at 0%. In addition, in the assay with Zea mays L. (corn), the plant injury at 35 g/ha came out at 0%, the plant injury at 70 g/ha is 0%, the plant injury at 140 g/ha is 90% and the plant injury at 280 g/ha came out at 100%.
Turning to `COC(=O)c1nc(C(C)(F)CF)cc(N)c1Cl` (centres unmarked) [Compound F11, Methyl 4-amino-3-chloro-6-(1,2-difluoropropan-2-yl)picolinate], the pest or weed control at 140 g/ha in assay [1] was 0%; in assay [2], 30%; in assay [3], 70%; in assay [4] it was 10%; in assay [5], 0%; in assay [6], 0%. Also, the plant injury at 140 g/ha in the assay with Oryza sativa L. (rice) and with Zea mays L. (corn) was 0% throughout.
With `COC(=O)c1nc(C(C)CF)cc(N)c1Cl` (centres unmarked) [Compound F20, methyl 4-amino-3-chloro-6-(1-fluoropropan-2-yl)picolinate], the pest or weed control at 140 g/ha is 30% in assay [1]; 95% in assay [2]; 50% in assay [3]; 95% in assay [4]; 80% in assay [5]; 0% in assay [6]. In addition, the plant injury at 140 g/ha in the assay on Oryza sativa L. (rice) and in the assay with Zea mays L. (corn) was 0% in each case.
Regarding `CC(F)c1nc(C(=O)O)c(Cl)c(N)c1F` (centres unmarked) [Compound F30, 4-amino-3-chloro-5-fluoro-6-(1-fluoroethyl)picolinic acid], in assay [1], the pest or weed control at 70 g/ha came out at 10%, the pest or weed control at 140 g/ha stood at 25%, the pest or weed control at 280 g/ha amounted to 50% and the “GR80 Value VIOTR” value is reported as over 280 g ai/ha. Also, in assay [2], the pest or weed control at 70 g/ha was determined as 100%, the pest or weed control at 140 g/ha stood at 100%, the pest or weed control at 280 g/ha was determined as 100% and the “GR80 Value AMARE” value is given as 40.6 g ai/ha. For the same compound, in assay [3], the pest or weed control at 70 g/ha amounted to 80%, the pest or weed control at 140 g/ha came out at 90%, the pest or weed control at 280 g/ha was found to be 90% and the “GR80 Value HELAN” value was 59.3 g ai/ha. In addition, in assay [4], the pest or weed control at 70 g/ha was found to be 70%, the pest or weed control at 140 g/ha worked out at 100%, the pest or weed control at 280 g/ha was 100% and the “GR80 Value EPHHL” value was 84.9 g ai/ha. Also, in assay [5], the pest or weed control at 70 g/ha was found to be 95%, the pest or weed control at 140 g/ha is 95%, the pest or weed control at 280 g/ha was determined as 100% and the “GR80 Value CHEAL” value is recorded as under 17.5 g ai/ha. In assay [6], the pest or weed control at 70 g/ha was found to be 0%, the pest or weed control at 140 g/ha was 65%, the pest or weed control at 280 g/ha was 80% and the “GR80 Value ECHCG” value was 239 g ai/ha. In addition, in the assay with Oryza sativa L. (rice), the plant injury at 70 g/ha is 0%, the plant injury at 140 g/ha is 0% and the plant injury at 280 g/ha was 0%. In the assay on Zea mays L. (corn), the plant injury at 70 g/ha is 100%, the plant injury at 140 g/ha amounted to 100% and the plant injury at 280 g/ha worked out at 100%.
Consider `Nc1c(Cl)c(C(=O)O)nc(C(F)F)c1Cl` [Compound F13, 4-Amino-3,5-dichloro-6-(difluoromethyl)picolinic acid], for which, in assay [1], the pest or weed control at 35 g/ha was 0%, the pest or weed control at 70 g/ha was found to be 0%, the pest or weed control at 140 g/ha came out at 0% and the “GR80 Value VIOTR” value was over 140 g ai/ha. For the same compound, in assay [2], the pest or weed control at 35 g/ha was found to be 90%, the pest or weed control at 140 g/ha came out at 90% and the “GR80 Value AMARE” value was 27.6 g ai/ha. Further, in assay [3], the pest or weed control at 35 g/ha was determined as 60%, the pest or weed control at 70 g/ha came to 75%, the pest or weed control at 140 g/ha was determined as 85% and the “GR80 Value HELAN” value is listed as 85.8 g ai/ha. Further, in assay [4], the pest or weed control at 35 g/ha is 100%, the pest or weed control at 70 g/ha is 100%, the pest or weed control at 140 g/ha amounted to 100% and the “GR80 Value EPHHL” value is 21.7 g ai/ha. Besides, in assay [5], the pest or weed control at 35 g/ha came out at 90%, the pest or weed control at 70 g/ha amounted to 90%, the pest or weed control at 140 g/ha turned out to be 90% and the “GR80 Value CHEAL” value is recorded as 25.1 g ai/ha. For the same compound, in assay [6], the pest or weed control at 35 g/ha turned out to be 0%, the pest or weed control at 70 g/ha amounted to 0%, the pest or weed control at 140 g/ha is 10% and the “GR80 Value ECHCG” value was over 149 g ai/ha. For the same compound, in the assay on Oryza sativa L. (rice), the plant injury at 35 g/ha came to 0%, the plant injury at 70 g/ha worked out at 0% and the plant injury at 140 g/ha worked out at 0%. For the same compound, in the assay with Zea mays L. (corn), the plant injury at 35 g/ha was 0%, the plant injury at 70 g/ha was determined as 0% and the plant injury at 140 g/ha was 5%.
